# Assay results published in patent US10576088B2, “Compositions comprising finafloxacin and Tris” (MerLion Pharmaceuticals Pte. Ltd., priority 2014, dated 2020).
# How the values were obtained:
# [1] = Solubility of finafloxacin HCl in Tris, phosphate and pH-adjusted WfI (Example 1); assay type: physicochemical
# Experimental: The solubility of finafloxacin, in form of its mono-hydrochloride salt, was tested at pH values between 7.3 and 9.0, using the following solutions: 0.01 M Tris: Water for injection 800 ml, Tris 1.21 g, sodium chloride 7.5 g, water for injection ad 1000 ml; pH was adjusted with HCl/NaOH. 0.025 M Phosphate: Water for injection 800 ml, sodium dihydrogen phosphate 1.950 g, disodium hydrogen phosphate 2.225 g, sodium chloride 7.5 g, water for injection ad 1000 ml; pH was adjusted with HCl/NaOH. WfI: Water for injection 900 ml, sodium chloride 7.5 g, water for injection ad 1000 ml; pH was adjusted with HCl/NaOH.
# [2] = Solubility of finafloxacin HCl in different concentrations of Tris solutions (Example 2); assay type: physicochemical
# Experimental: 0.25 M Tris: Water for injection 800 ml, Tris 30.3 g, sodium chloride 7.5 g, water for injection ad 1000 ml; pH was adjusted with HCl/NaOH. 0.17 M Tris: Water for injection 800 ml, Tris 20.0 g, sodium chloride 7.5 g, water for injection ad 1000 ml; pH was adjusted with HCl/NaOH. 0.08 M Tris: Water for injection 800 ml, Tris 10.0 g, sodium chloride 7.5 g, water for injection ad 1000 ml; pH was adjusted with HCl/NaOH. […] In contrast to example 1 the pH was not re-adjusted after the stepwise addition of finafloxacin.
# [3] = Stability of finafloxacin composition comprising Tris (Example 3); assay type: physicochemical; conditions: solution of 3.20 g/l finafloxacin, 7.80 g/l NaCl, 1.21 g/l Tris, pH 8.25, water for injection
# Source text: The following composition was used to test the stability: [table]
# S. aureus 29213 = assay: In vitro susceptibility test (MIC), finafloxacin composition with Tris; assay type: cell-based; conditions: Staphylococcus aureus, composition at pH 8.0 containing 0.05 M Tris, read-out: minimal inhibitory concentration (MIC)
# Experimental: (§1) The efficacy of finafloxacin compositions including Tris between pH 8.0-8.5 was examined and determined as follows:
# (§2) 4.1 Bacteria were incubated in a finafloxacin composition at pH 8.0 containing 0.05 M Tris and the minimal inhibitory concentration (MIC) of finafloxacin, defined as the minimal finafloxacin concentration that inhibited the growth of the bacterium, was determined using a standard in vitro susceptibility test.
# E. coli 25922 = assay: as above; assay type: cell-based; conditions: Escherichia coli, composition at pH 8.0 containing 0.05 M Tris, read-out: minimal inhibitory concentration (MIC)
# Experimental: as §1, §2
# E. coli ATCC 25922 = assay: Mouse intraperitoneal infection model, bacterial burden; assay type: in vivo; conditions: mice, composition with 0.01 M Tris, doses 4 and 12 hours post infection, burden 24 hours post infection
# Experimental: 4.2 Mice were infected with 3.9×10^5 E. coli ATCC 25922 suspended in 1% porcine mucin administered by a 0.5 ml intraperitoneal injection. Antibacterial treatment with a finafloxacin composition comprising 0.01 M Tris was initiated 4 hours post infection with a second dose 12 hours post infection. The bacterial burden in the peritoneal fluid and blood culture was determined 24 hours post infection. Finafloxacin was effective at all doses with 1 mg/kg causing a reduction in burden of 3.1 log 10 cfu/g, finafloxacin administered at 3, 10 and 30 mg/kg were increasingly effective causing reductions of 4.4, 5.0 and 6.5 log 10 cfu/g, respectively.
# pathogen in the urine = assay: Microbiological cure in patients with complicated urinary tract infections and pyelonephritis; assay type: in vivo, human; conditions: intravenous 800 mg once daily, composition with 0.01 M Tris, 17 days after start of treatment, cure = pathogen in urine ≤10^3 cfu/ml
# Experimental: 4.3 Patients with complicated urinary tract infections and pyelonephritis were treated with an intravenous dose of 800 mg Finafloxacin once daily. 17 days after the start of the treatment the microbiological cure results were determined. Microbiological cure is defined as the reduction of the concentration of the pathogen in the urine to a titer of ≤10^3 cfu/ml. The finafloxacin composition comprising 0.01 M Tris caused an efficient eradication of the pathogens. The microbiological cure rate was 83%.
# [4] = 2-week intravenous toxicological appraisal in rats; assay type: in vivo; conditions: 2 weeks, 60, 120 and 200 mg/kg/day, in 0.01 M Tris, 0.75% (w/v) sodium chloride, pH 8.5
# Source text: The test article was formulated in 0.01 M Tris containing sodium chloride to 0.75% (w/v), adjusted in water for injection to pH 8.5.
smiles,measurement,setting,value
Cl.N#Cc1c(N2C[C@@H]3NCCO[C@H]3C2)c(F)cc2c(=O)c(C(=O)O)cn(C3CC3)c12 [Finafloxacin HCl],solubility,"[1]; 0.01 M Tris, pH 7.5, pH re-adjusted",6000 µg/mL
same,solubility,"[1]; 0.01 M Tris, pH 8.0, pH re-adjusted",15000 µg/mL
same,solubility,"[1]; 0.01 M Tris, pH 8.5, pH re-adjusted",>28000 µg/mL
same,solubility,"[1]; 0.01 M Tris, pH 9.0, pH re-adjusted",>28000 µg/mL
same,solubility,"[1]; 0.025 M Phosphate, pH 7.5, pH re-adjusted",2000 µg/mL
same,solubility,"[1]; 0.025 M Phosphate, pH 8.0, pH re-adjusted",4000 µg/mL
same,solubility,"[1]; 0.025 M Phosphate, pH 8.5, pH re-adjusted",6000 µg/mL
same,solubility,"[1]; 0.025 M Phosphate, pH 9.0, pH re-adjusted",8000 µg/mL
same,solubility,"[1]; pH-adjusted WfI, pH 7.5",2000 µg/mL
same,solubility,"[1]; pH-adjusted WfI, pH 8.0",4000 µg/mL
same,solubility,"[1]; pH-adjusted WfI, pH 8.5",6000 µg/mL
same,solubility,"[1]; pH-adjusted WfI, pH 9.0",6000 µg/mL
same,solubility,"[2]; 0.08 M Tris, pH 7.8, pH not re-adjusted",4000 µg/mL
same,solubility,"[2]; 0.08 M Tris, pH 8.2, pH not re-adjusted",6000 µg/mL
same,solubility,"[2]; 0.08 M Tris, pH 8.6, pH not re-adjusted",9000 µg/mL
same,solubility,"[2]; 0.08 M Tris, pH 9.0, pH not re-adjusted",10000 µg/mL
same,solubility,"[2]; 0.17 M Tris, pH 7.4, pH not re-adjusted",2000 µg/mL
same,solubility,"[2]; 0.17 M Tris, pH 7.8, pH not re-adjusted",6000 µg/mL
same,solubility,"[2]; 0.17 M Tris, pH 8.2, pH not re-adjusted",10000 µg/mL
same,solubility,"[2]; 0.17 M Tris, pH 8.6, pH not re-adjusted",19000 µg/mL
same,solubility,"[2]; 0.17 M Tris, pH 9.0, pH not re-adjusted",23000 µg/mL
same,solubility,"[2]; 0.25 M Tris, pH 7.4, pH not re-adjusted",2000 µg/mL
same,solubility,"[2]; 0.25 M Tris, pH 7.8, pH not re-adjusted",8000 µg/mL
same,solubility,"[2]; 0.25 M Tris, pH 8.2, pH not re-adjusted",15000 µg/mL
same,solubility,"[2]; 0.25 M Tris, pH 8.6, pH not re-adjusted",24000 µg/mL
same,solubility,"[2]; 0.25 M Tris, pH 9.0, pH not re-adjusted",28000 µg/mL
"N#Cc1c(N2C[C@@H]3NCCO[C@H]3C2)c(F)cc2c(=O)c(C(=O)O)cn(C3CC3)c12 [Finafloxacin, (−)-8-cyano-1-cyclopropyl-6-fluoro-7-[(4aS,7aS)-hexahydropyrrolo[3,4-b]-1,4-oxazin-6(2H)-yl]-4-oxo-1,4-dihydroquinoline-3-carboxylic acid]",long term stability,[3],at least 24 months
same,MIC,S. aureus 29213,0.5 µg/mL
same,MIC,E. coli 25922,0.25 µg/mL
same,reduction in burden,E. coli ATCC 25922; 1 mg/kg,3.1 log 10 cfu/g
same,reduction in burden,E. coli ATCC 25922; 3 mg/kg,4.4 log 10 cfu/g
same,reduction in burden,E. coli ATCC 25922; 10 mg/kg,5.0 log 10 cfu/g
same,reduction in burden,E. coli ATCC 25922; 30 mg/kg,6.5 log 10 cfu/g
same,microbiological cure rate,pathogen in the urine,83%
same,tolerability,[4],generally well tolerated
same,increase in solubility,[1]; 0.01 M Tris versus WfI and phosphate buffer,3-4 fold
